# Experimental data: patent US8269026B2, “Lupane derivatives useful for treating HIV” (priority 2008, dated 2012)
# pIC50: −log10 of the molar value.
# Tested on: HIV-1 (HIVIIIB) replication in MT2 cell line
# Test: HIV-1 replication in MT2 cell line with and without 30% human serum (viral RT activity in supernatant)
# Assay type: cell-based
# Conditions: Human immunodeficiency virus 1, MT2 cells, with 30% human serum, average IC50 if tested more than once, read-out: MT2 (HIVIIIB) with HS 30% IC50 range
# Outline: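 Read-out is supernatant reverse transcriptase activity on day 5 post-infection, giving IC50 and IC90. Compounds were titrated in complete medium ± 30% human serum, re-dosed after 3 days, on MT2 cells exposed for 3 h to HIVIIIB at MOI 0.5 then washed.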
row,Compound,pIC50
1,"CC(C)C1=C2C3CCC4[C@@]5(C)CC[C@H](OC(=O)CC(C)(C)C(=O)O)C(C)(C)C5CC[C@@]4(C)[C@]3(C)CC[C@@]2(NC(=O)N[C@H](C)C(F)(F)F)CC1=O (stereo partly drawn) [17-51, 3β-O-(3′,3′-Dimethylsuccinyl)-17β-[N′-((R)-2,2,2-trifluoro-1-methyl-ethyl)-ureido]-21-oxolup-18-ene]",> 6.70
2,CC(C)C1=C2[C@H]3CC[C@@H]4[C@@]5(C)CC[C@H](OC(=O)CC(C)(C)C(=O)O)C(C)(C)[C@@H]5CC[C@@]4(C)[C@]3(C)CC[C@@]2(NC(=O)NC2CNC2)CC1=O [17-35],6.00 to 6.70
3,"CC(C)C1=C2[C@H]3CC[C@@H]4[C@@]5(C)CC[C@H](OC(=O)CC(C)(C)C(=O)O)C(C)(C)[C@@H]5CC[C@@]4(C)[C@]3(C)CC[C@@]2(NC(=O)c2cccc(F)c2)CC1=O [19-12, 3β-O-(3′,3′-Dimethylsuccinyl)-17β-(3-fluorobenzamido)-21-oxolup-18-ene]",> 6.70
4,"CC(C)C1=C2C3CCC4[C@@]5(C)CC[C@H](OC(=O)CC(C)(C)C(=O)O)C(C)(C)C5CC[C@@]4(C)[C@]3(C)CC[C@@]2(NC(=O)NC(C)(C)C)CC1=O (stereo partly drawn) [17-5, 3β-O-(3′,3′-Dimethylsuccinyl)-17β-[N′-(tert-butyl)ureido]-21-oxolup-18-ene]",> 6.70
5,"CC(C)C1=C2C3CCC4[C@@]5(C)CC[C@H](OC(=O)CC(C)(C)C(=O)O)C(C)(C)C5CC[C@@]4(C)[C@]3(C)CC[C@@]2(NC(=O)OC(C)C2CC2)CC1=O (stereo partly drawn) [20-10, 3β-O-(3′,3′-Dimethylsuccinyl)-17β-(1-cyclopropylethoxycarbonylamino)-21-oxolup-18-ene]",> 6.70
6,"CC(C)C1=C2C3CCC4[C@@]5(C)CC[C@H](OC(=O)CC(C)(C)C(=O)O)C(C)(C)C5CC[C@@]4(C)[C@]3(C)CC[C@@]2(NC(=O)NCC2CCN(C)CC2)CC1=O (stereo partly drawn) [17-28, 3β-O-(3′,3′-Dimethylsuccinyl)-17β-[N′-(1-methyl-piperidin-4-ylmethyl)-ureido]-21-oxolup-18-ene]",< 6.00
7,"CC(C)C1=C2C3CCC4[C@@]5(C)CC[C@H](OC(=O)CC(C)(C)C(=O)O)C(C)(C)C5CC[C@@]4(C)[C@]3(C)CC[C@@]2(NC(=O)NCc2ccncc2)CC1=O (stereo partly drawn) [17-31, 3β-O-(3′,3′-Dimethylsuccinyl)-17β-[N′-(pyridin-4-ylmethyl)ureido]-21-oxolup-18-ene]",> 6.70
8,"CC(C)C1=C2[C@H]3CC[C@@H]4[C@@]5(C)CC[C@H](OC(=O)CC(C)(C)C(=O)O)C(C)(C)[C@@H]5CC[C@@]4(C)[C@]3(C)CC[C@@]2(NC(=O)Cc2ccc(F)cc2)CC1=O [19-9, 3β-O-(3′,3′-Dimethylsuccinyl)-17β-(4-fluorobenzyl)amido-21-oxolup-18-ene]",> 6.70
9,"CC(C)C1=C2[C@H]3CC[C@@H]4[C@@]5(C)CC[C@H](OC(=O)CC(C)(C)C(=O)O)C(C)(C)[C@@H]5CC[C@@]4(C)[C@]3(C)CC[C@@]2(NC(=O)c2cnccn2)CC1=O [19-16, 3β-O-(3′,3′-Dimethylsuccinyl)-17β-(pyrazin-2-yl)amido-21-oxolup-18-ene]",> 6.70
10,"CC(C)C1=C2C3CCC4[C@@]5(C)CC[C@H](OC(=O)CC(C)(C)C(=O)O)C(C)(C)C5CC[C@@]4(C)[C@]3(C)CC[C@@]2(NC(=O)c2ncccn2)CC1=O (stereo partly drawn) [19-22, 3β-O-(3′,3′-Dimethylsuccinyl)-17β-(pyrimidine-2-amido)-21-oxolup-18-ene]",> 6.70
11,"CC(C)C1=C2[C@H]3CC[C@@H]4[C@@]5(C)CC[C@H](OC(=O)CC(C)(C)C(=O)O)C(C)(C)[C@@H]5CC[C@@]4(C)[C@]3(C)CC[C@@]2(NC(=O)CN2CCCC2)CC1=O [19-38, 3β-O-(3′,3′-Dimethylsuccinyl)-17β-(2-pyrrolidin-1-yl-acetamido)-21-oxolup-18-ene]",> 6.70
12,"CC(C)C1=C2C3CCC4[C@@]5(C)CC[C@H](OC(=O)CC(C)(C)C(=O)O)C(C)(C)C5CC[C@@]4(C)[C@]3(C)CC[C@@]2(NC(=O)NCC2CCCCC2)CC1=O (stereo partly drawn) [17-8, 3β-O-(3′,3′-Dimethylsuccinyl)-17β-[N′-(cyclohexylmethyl)ureido]-21-oxolup-18-ene]",> 6.70
13,"CC(C)C1=C2[C@H]3CC[C@@H]4[C@@]5(C)CC[C@H](OC(=O)CC(C)(C)C(=O)O)C(C)(C)[C@@H]5CC[C@@]4(C)[C@]3(C)CC[C@@]2(NC2CCN(C(=O)OC(C)(C)C)CC2)CC1=O [16-1, 3β-O-(3′,3′-Dimethylsuccinyl)-17β-(1-tert-butyloxycarbonylpiperidine-4-amino]-21-oxolup-18-ene]",> 6.70
14,"CC(C)C1=C2C3CCC4[C@@]5(C)CC[C@H](OC(=O)CC(C)(C)C(=O)O)C(C)(C)C5CC[C@@]4(C)[C@]3(C)CC[C@@]2(NC(=O)OC2CCC2)CC1=O (stereo partly drawn) [20-9, 3β-O-(3′,3′-Dimethylsuccinyl)-17β-cyclobutyloxycarbonylamino-21-oxolup-18-ene]",> 6.70
15,"CC(C)C1=C2C3CCC4[C@@]5(C)CC[C@H](OC(=O)CC(C)(C)C(=O)O)C(C)(C)C5CC[C@@]4(C)[C@]3(C)CC[C@@]2(NC(=O)c2ccncn2)CC1=O (stereo partly drawn) [19-25, 3β-O-(3′,3′-Dimethylsuccinyl)-17β-(pyrimidine-4-amido)-21-oxolup-18-ene]",> 6.70
16,"CC(C)C1=C2[C@H]3CC[C@@H]4[C@@]5(C)CC[C@H](OC(=O)CC(C)(C)C(=O)O)C(C)(C)[C@@H]5CC[C@@]4(C)[C@]3(C)CC[C@@]2(NC(=O)CN(C)C)CC1=O [19-53, 3β-O-(3′,3′-Dimethylsuccinyl)-17β-(2-dimethylamino-acetamido)-21-oxolup-18-ene]",> 6.70
17,"CC(C)C1=C2[C@H]3CC[C@@H]4[C@@]5(C)CC[C@H](OC(=O)CC(C)(C)C(=O)O)C(C)(C)[C@@H]5CC[C@@]4(C)[C@]3(C)CC[C@@]2(NC(=O)N2CCN(C)CC2)CC1=O [17-16, 3β-O-(3′,3′-Dimethylsuccinyl)-17β-[(4-methyl-piperazine-1-carbonyl)-amino]-21-oxolup-18-ene]",> 6.70
18,"CC(C)C1=C2[C@H]3CC[C@@H]4[C@@]5(C)CC[C@H](OC(=O)CC(C)(C)C(=O)O)C(C)(C)[C@@H]5CC[C@@]4(C)[C@]3(C)CC[C@@]2(NC(=O)NCc2ccccc2)CC1=O [17-1, 3β-O-(3′,3′-Dimethylsuccinyl)-17β[N′-(benzyl)ureido]-21-oxolup-18-ene]",> 6.70
19,"CC(C)C1=C2[C@H]3CC[C@@H]4[C@@]5(C)CC[C@H](OC(=O)CC(C)(C)C(=O)O)C(C)(C)[C@@H]5CC[C@@]4(C)[C@]3(C)CC[C@@]2(NC(=O)CCN2CCCC2=O)CC1=O [19-41, 3β-O-(3′,3′-Dimethylsuccinyl)-17β-[3-(2-oxo-pyrrolidin-1-yl)-propionamido]-21-oxolup-18-ene]",> 6.70
20,CC(C)C1=C2[C@H]3CC[C@@H]4[C@@]5(C)CC[C@H](OC(=O)CC(C)(C)C(=O)O)C(C)(C)[C@@H]5CC[C@@]4(C)[C@]3(C)CC[C@@]2(NC(=O)[C@H]2CCCN2C)CC1=O [19-55],> 6.70
21,"CC(C)C1=C2[C@H]3CC[C@@H]4[C@@]5(C)CC[C@H](OC(=O)CC(C)(C)C(=O)O)C(C)(C)[C@@H]5CC[C@@]4(C)[C@]3(C)CC[C@@]2(NC(=O)c2ccnn2C)CC1=O [19-34, 3β-O-(3′,3′-Dimethylsuccinyl)-17β-(1-methyl-1H-pyrazole-5-amido)-21-oxolup-18-ene]",> 6.70
22,"CC(C)C1=C2C3CCC4[C@@]5(C)CC[C@H](OC(=O)CC(C)(C)C(=O)O)C(C)(C)C5CC[C@@]4(C)[C@]3(C)CC[C@@]2(NC(=O)OCC2CCN(C)CC2)CC1=O (stereo partly drawn) [20-18, 3β-O-(3′,3′-Dimethylsuccinyl)-17β-(1-methylpiperidine-4-methoxycarbonylamino)-21-oxolup-18-ene]",> 6.70
23,"CC(C)C1=C2[C@H]3CC[C@@H]4[C@@]5(C)CC[C@H](OC(=O)CC(C)(C)C(=O)O)C(C)(C)[C@@H]5CC[C@@]4(C)[C@]3(C)CC[C@@]2(NC(=O)c2cn(C)cn2)CC1=O [19-19, 3β-O-(3′,3′-Dimethylsuccinyl)-17β-(1-methyl-1H-imidazole-4-amido)-21-oxolup-18-ene]",> 6.70
24,"CC(C)C1=C2C3CCC4[C@@]5(C)CC[C@H](OC(=O)CC(C)(C)C(=O)O)C(C)(C)C5CC[C@@]4(C)[C@]3(C)CC[C@@]2(NC(=O)NC(C)(C)C2CCCCC2)CC1=O (stereo partly drawn) [17-70, 3β-O-(3′,3′-Dimethylsuccinyl)-17β-[N′-(1-methyl-1-cyclohexyl-ethyl)-ureido]-21-oxolup-18-ene]",< 6.00
25,"CC(C)C(=O)N[C@@]12CC[C@]3(C)C(CCC4[C@@]5(C)CC[C@H](OC(=O)CC(C)(C)C(=O)O)C(C)(C)C5CC[C@]43C)C1=C(C(C)C)C(=O)C2 (stereo partly drawn) [19-31, 3β-O-(3′,3′-Dimethylsuccinyl)-17β-isopropylamido-21-oxolup-18-ene]",> 6.70
26,"Cc1ccccc1C(=O)N[C@@]12CC[C@]3(C)[C@H](CC[C@@H]4[C@@]5(C)CC[C@H](OC(=O)CC(C)(C)C(=O)O)C(C)(C)[C@@H]5CC[C@]43C)C1=C(C(C)C)C(=O)C2 [19-45, 3β-O-(3′,3′-Dimethylsuccinyl)-17β-(2-methylbenzamido)-21-oxolup-18-ene]",> 6.70
27,"CC(C)C1=C2[C@H]3CC[C@@H]4[C@@]5(C)CC[C@H](OC(=O)CC(C)(C)C(=O)O)C(C)(C)[C@@H]5CC[C@@]4(C)[C@]3(C)CC[C@@]2(NC(=O)NC2CCN(C(=O)OC(C)(C)C)CC2)CC1=O [17-9, 3β-O-(3′,3′-Dimethylsuccinyl)-17β[N′-(1-tert-butyloxycarbonyl-piperidin-4-yl)-ureido]-21-oxolup-18-ene]",> 6.70
28,"CC(C)C1=C2C3CCC4[C@@]5(C)CC[C@H](OC(=O)CC(C)(C)C(=O)O)C(C)(C)C5CC[C@@]4(C)[C@]3(C)CC[C@@]2(NC(=O)OCC2(C)CC2)CC1=O (stereo partly drawn) [20-11, 3β-O-(3′,3′-Dimethylsuccinyl)-17β-(1-methyl-cyclopropylmethoxycarbonylamino)-21-oxolup-18-ene]",> 6.70

# Same assay, conditions: Human immunodeficiency virus 1, MT2 cells, without human serum, average IC50 if tested more than once, read-out: MT2 (HIVIIIB) IC50 range
row,Compound,pIC50
1,"CC(C)C1=C2C3CCC4[C@@]5(C)CC[C@H](OC(=O)CC(C)(C)C(=O)O)C(C)(C)C5CC[C@@]4(C)[C@]3(C)CC[C@@]2(NC(=O)NC(C)(C)C)CC1=O (stereo partly drawn) [17-5, 3β-O-(3′,3′-Dimethylsuccinyl)-17β-[N′-(tert-butyl)ureido]-21-oxolup-18-ene]",> 6.70
2,"CC(C)C1=C2[C@H]3CC[C@@H]4[C@@]5(C)CC[C@H](OC(=O)CC(C)(C)C(=O)O)C(C)(C)[C@@H]5CC[C@@]4(C)[C@]3(C)CC[C@@]2(NC(=O)Cc2ccc(F)cc2)CC1=O [19-9, 3β-O-(3′,3′-Dimethylsuccinyl)-17β-(4-fluorobenzyl)amido-21-oxolup-18-ene]",> 6.70
3,"CC(C)C1=C2[C@H]3CC[C@@H]4[C@@]5(C)CC[C@H](OC(=O)CC(C)(C)C(=O)O)C(C)(C)[C@@H]5CC[C@@]4(C)[C@]3(C)CC[C@@]2(NC2CCN(C(=O)OC(C)(C)C)CC2)CC1=O [16-1, 3β-O-(3′,3′-Dimethylsuccinyl)-17β-(1-tert-butyloxycarbonylpiperidine-4-amino]-21-oxolup-18-ene]",> 6.70
4,"CC(C)C1=C2[C@H]3CC[C@@H]4[C@@]5(C)CC[C@H](OC(=O)CC(C)(C)C(=O)O)C(C)(C)[C@@H]5CC[C@@]4(C)[C@]3(C)CC[C@@]2(NC(=O)NCc2ccccc2)CC1=O [17-1, 3β-O-(3′,3′-Dimethylsuccinyl)-17β[N′-(benzyl)ureido]-21-oxolup-18-ene]",> 6.70
5,"CC(C)C1=C2[C@H]3CC[C@@H]4[C@@]5(C)CC[C@H](OC(=O)CC(C)(C)C(=O)O)C(C)(C)[C@@H]5CC[C@@]4(C)[C@]3(C)CC[C@@]2(NC(=O)c2ccnn2C)CC1=O [19-34, 3β-O-(3′,3′-Dimethylsuccinyl)-17β-(1-methyl-1H-pyrazole-5-amido)-21-oxolup-18-ene]",> 6.70
